# Data: patent EP4678639A1, “SALT OF BENZIMIDAZOLE DERIVATIVE” (JW Pharmaceutical Corporation, priority 2023, dated 2024)
# Counter-ions that a name gives are not always drawn.
# How the values were obtained:
# [1] = water
# Method: The measurement was conducted according to the method described under "Solubility" in the General Notices of Appendix 1 of the 12th Edition of the Korean Pharmacopoeia. Each solubility was expressed by measuring the solubility of the acid addition salt itself, without conversion to the tegoprazan freebase.
# [2] = Solid-state accelerated stability test (40 ± 2 °C/RH 75 ± 5 %); settings: for After 1 Month (%) Degradant / After 1 Month (%) Total Related substances / Change (%) Degradant: 40 ± 2 °C / RH 75 ± 5 %; for Change (%) Degradant: 1 month vs initial; for Initial (%) Total Related substances / Initial (%) Degradant: Table 7, initial; for Initial (%) Degradant: degradant of Formula 4
# Method: The analysis conditions are as follows.
# (§1) Operation and Calculation: The blank solution, standard solution, and test solution were sequentially tested under the instrument operating conditions according to the liquid chromatography method in the General Test Methods of the 12th Edition of the Korean Pharmacopoeia, and the amount of related substances was calculated using the following equation. Amount of each related; substance (%) = (AT)/(AS) × (CS)/(CT) × (Molecular weight; of the sample)/(Molecular weight; of the standard; product) × P × (1)/(RR; F) [formula] AT = Area of each related substance peak obtained from the test solution AS = Area of the tegoprazan peak obtained from the standard solution CS = Concentration of standard solution (mg/mL) CT = Concentration of test solution (mg/mL) P = Purity/Assay/Potency (%) of standard product RRF = Relative response factor (1.0)
# (§2) A solid-state stability comparative test was conducted on each of the above-mentioned prepared tegoprazan acid addition salts. The stability comparative test was conducted for 1 month under the conditions shown in Table 6 below in accordance with The International Council for Harmonisation of Technical Requirements for Pharmaceuticals for Human Use (ICH) guideline, and the purity of the acid addition salt, total related substances, and the content of degradants were measured by HPLC at the initial time point and after 1 month. Total related substances and degradants were measured according to the related substance test method (HPLC).
# [3] = Solid-state stress stability test (temperature 60 °C); settings: for Change (%) Degradant: 1 month vs initial; for Initial (%) Degradant / Initial (%) Total Related substances: Table 8, initial
# Method: The analysis conditions are as follows.
# as §1, §2
# 2) Stress Stability Test (temperature 60 °C)
# [4] = Photostability test, ultraviolet light (200 W·hr/m2) exposure; settings: for After Ultraviolet Light Exposure (200 W hr/m2)(%) Degradant / After Ultraviolet Light Exposure (200 W hr/m2)(%) Total Related substances: Table 10, UV 200 W·hr/m2, PE bag; for Change (%) Degradant: Table 10, after UV exposure vs initial; for Initial (%) Degradant / Initial (%) Total Related substances: Table 10, initial
# Method: (§3) A photostability comparative test was conducted on each of the above-mentioned prepared tegoprazan acid addition salts. The test was conducted by exposing the sample to light with an energy of 200 W hr/m^2 of ultraviolet light and 1.2 Mlux hr of visible light in accordance with The International Council for Harmonisation of Technical Requirements for Pharmaceuticals for Human Use (ICH) guideline, with the samples packaged in a single PE bag and spread thinly enough to ensure exposure to the light source, taking humidity stability into consideration. The purity of the acid addition salts and the change in the amount of degradants at the initial time point and after exposure to ultraviolet light or visible light were measured by HPLC.
# [5] = Photostability test, visible light (1.2 Mlux·hr) exposure; settings: for Change (%) Degradant: Table 11, after exposure vs initial; for Initial (%) Degradant / Initial (%) Total Related substances: Table 11, initial; for After (%) Degradant / After (%) Total Related substances: Table 11 under heading Visible Light (1.2 Mlux-hr) Exposure Test
# Method: as §3
# [6] = Solid-state stress stability test (humidity 90 % RH); settings: for Initial (%) Degradant / Initial (%) Total Related substances: Table 9, initial
# Method: The analysis conditions are as follows.
# as §1, §2
# 3) Stress Stability (humidity 90 % RH)
Structure (SMILES),solubility / aqueous solubility [1],After 1 Month (%) Degradant [2],After 1 Month (%) Total Related substances [2],Change (%) Degradant [2],Initial (%) Total Related substances [2],Initial (%) Degradant [2],After 1 Month (%) Degradant ([3]; 60 °C),After 1 Month (%) Total Related substances ([3]; 60 °C),Change (%) Degradant ([3]; 60 °C),Initial (%) Degradant [3],Initial (%) Total Related substances [3],After Ultraviolet Light Exposure (200 W hr/m2)(%) Degradant [4],After Ultraviolet Light Exposure (200 W hr/m2)(%) Total Related substances [4],Change (%) Degradant [4],Initial (%) Degradant [4],Initial (%) Total Related substances [4],Change (%) Degradant [5],Initial (%) Degradant [5],Initial (%) Total Related substances [5],After (%) Degradant [5],other results
Cc1nc2c(O[C@H]3CCOc4cc(F)cc(F)c43)cc(C(=O)N(C)C)cc2[nH]1 [Hemisalicylate Salt],≤ 1000 µg/mL,0.004%,0.208%,0.003%,0.208%,0.001%,0.039%,0.268%,0.038%,0.001%,0.208%,0.360%,1.360%,0.359%,0.001%,0.208%,0.244%,0.001%,0.208%,0.245%,"purity change after 1 month ([2]; accelerated stability): ≤ 0.1%; Remarks ([4]; Table 10, after UV exposure, appearance): Discolorat ion; changes in appearance ([4]; ultraviolet light exposure): changes in appearance; Remarks ([5]; Table 11, after exposure, appearance): Discolorat ion; After (%) Total Related substances [5]: 1.021%; changes in appearance ([5]; visible light exposure): changes in appearance; After 1 Month (%) Total Related substances ([6]; 90 % RH, 1 month): 1.759%; Initial (%) Degradant [6]: 0.001%; Initial (%) Total Related substances [6]: 0.208%"
Cc1nc2c(O[C@H]3CCOc4cc(F)cc(F)c43)cc(C(=O)N(C)C)cc2[nH]1 [Maleate Salt],≤ 1000 µg/mL,0.083%,0.679%,0.056%,0.357%,0.027%,1.248%,6.070%,1.221%,0.027%,0.357%,0.032%,0.354%,0.005%,0.027%,0.357%,0.006%,0.027%,0.357%,0.033%,"increase in total related substances after 1 month ([2]; accelerated stability): ≥ 0.3%; total related substances increased after 1 month ([3]; 60 °C): ≥ 5.0%; After (%) Total Related substances [5]: 0.508%; absorb moisture and deliquesce / melted ([6]; 90 % RH): absorb moisture and deliquesce; Remarks ([6]; 90 % RH, 1 month, state of the solid): Melted; Initial (%) Degradant [6]: 0.027%; Initial (%) Total Related substances [6]: 0.357%"
